Here are results for 4 molecules from US4068074A, “Cephalosporin derivatives having at the 3-position of the cephem ring a heterocyclic thiomethyl group with a carboxy or sulfo group and at the 7-position of the cephem ring an α-heterocylic acylaminophenyl-acetamide group” (priority 1974, dated 1978).

The structures appear in SMILES notation. ≈ marks a conversion by molar mass, not a printed value. Read-outs that look alike come from different tables or passages of the source.

As a reminder, the MIC is the lowest concentration that inhibits growth of the organism. For orientation: solubility means how much of the substance goes into solution per volume.

Data set [1] in a line: Solubility of salts in water (Table 2). Type of data set: physicochemical. The conditions noted are these: for Solubility (appearance of solution): sodium salt, in water; for solubility: disodium salt, water, showing pH 7.4, read-out: Solubility: disodium salt dissolved in water in an amount of. From the text: An advantage of the compounds of this invention is that the salts, for example, sodium salts of these compounds are readily soluble in water at pH of living bodies, which makes them suitable for injections at high concentration. The solubility of these compounds are illustrated in Table 2 together with a control example.

In the next data set the test system is Salmonella enteritidis. Briefly: MIC against bacteria (Table I), strain (10). It is filed as cell-based. The conditions noted are these: Salmonella enterica. From the text:
(§1) Now, for illustrating the excellent pharmacological effects of the compounds of this invention, the values of MIC (γ/ml.) of the compounds against various bacteria are shown in Table 1, in which the compounds of this invention used are shown by example numbers.
(10) Salmonella enteritidis

The subject of the next data set is Staphylococcus Onuma. Briefly: MIC against bacteria (Table I), strain (18). It is filed as cell-based. The conditions noted are these: (18) Staphylococcus Onuma; read-out: MIC.
From the text: as §1
(18) Staphylococcus Onuma

Data set [2] has as its system Micrococcus flavus ATCC 10240. Briefly: MIC against bacteria (Table I), strain (15). It is filed as cell-based. The conditions noted are these: ATCC10240.
From the text: as §1
(15) Micrococcus flavus ATCC 10240

In data set [3] the test system is Staphylococcus aureus 209P. The experiment in a line: MIC against bacteria (Table I), strain (16). Type of data set: cell-based.
From the text: as §1
(16) Staphylococcus aureus 209P

In data set [4] the test system is Shigella flexneri 2a 1675. The experiment in a line: MIC against bacteria (Table I), strain (11). Type of data set: cell-based. The conditions noted are these: 2A1675; (11) Shigella flexneri 2a 1675; read-out: MIC.
From the text: as §1

Data set [5] deals with Psuedomonas ovalis IMA 1002. The experiment in a line: MIC against bacteria (Table I), strain (6). It is filed as cell-based. The conditions noted are these: (6) Psuedomonas ovalis IMA 1002; read-out: MIC.
From the text: as §1
(6) Psuedomonas ovalis IMA 1002

The subject of data set [6] is Proteus mirabilis IXM OM-19. Briefly: MIC against bacteria (Table I), strain (3). It is filed as cell-based. The following applies: IXMOM19; (3) Proteus mirabilis IXM OM-19; read-out: MIC.
From the text: as §1
(3) Proteus mirabilis IXM OM-19

In data set [7] the test system is Pseudomonas aeruginosa ATCC 8689. Briefly: MIC against bacteria (Table I), strain (4). It is filed as cell-based. The following applies: ATCC8689; (4) Pseudomonas aeruginosa ATCC 8689; read-out: MIC.
From the text: as §1
(4) Pseudomonas aeruginosa ATCC 8689

Data set [8] relates to Pseudomonas aeruginosa 99 (Gentamycin resistant). The experiment in a line: MIC against bacteria (Table I), strain (5). It is filed as cell-based. The conditions noted are these: (5) Pseudomonas aeruginosa 99 (Gentamycin resistant); read-out: MIC.
From the text: as §1
(5) Pseudomonas aeruginosa 99 (Gentamycin resistant)

Another data set deals with Salmonella typhi H901 W. Briefly: MIC against bacteria (Table I), strain (9). The conditions noted are these: Salmonella enterica, TYPHI. Type of data set: cell-based.
From the text: as §1
(9) Salmonella typhi H901 W

The subject of data set [9] is Klebsiella pneumoniae ATCC 10031. Briefly: MIC against bacteria (Table I), strain (8). Type of data set: cell-based. The following applies: ATCC10031; (8) Klebsiella pneumoniae ATCC 10031; read-out: MIC.
From the text: as §1
(8) Klebsiella pneumoniae ATCC 10031

A further data set concerns Proteus vulgaris OXK US. Briefly: MIC against bacteria (Table I), strain (1). It is filed as cell-based. The conditions noted are these: (1) Proteus vulgaris OXK US; read-out: MIC.
From the text: as §1
(1) Proteus vulgaris OXK US

For data set [10], the system named is Escherichia coli kauffmann 0-1. Briefly: MIC against bacteria (Table I), strain (7). It is filed as cell-based. The following applies: Escherichia coli.
From the text: as §1
(7) Escherichia coli kauffmann 0-1

Data set [11] relates to Bacillus subtilis ATCC 6633. Briefly: MIC against bacteria (Table I), strain (14). The conditions noted are these: ATCC6633; (14) Bacillus subtilis ATCC 6633; read-out: MIC. It is filed as cell-based.
From the text: as §1
(14) Bacillus subtilis ATCC 6633

Another data set deals with Shigella sonnei II 37148. Briefly: MIC against bacteria (Table I), strain (12). Type of data set: cell-based. The conditions noted are these: II37148; (12) Shigella sonnei II 37148; read-out: MIC.
From the text: as §1

Data set [12] has as its system Staphylococcus Shimanishi. The experiment in a line: MIC against bacteria (Table I), strain (17). Type of data set: cell-based.
From the text: as §1
(17) Staphylococcus Shimanishi

Another data set relates to Proteus vulgaris 0X 19US. The experiment in a line: MIC against bacteria (Table I), strain (2). It is filed as cell-based. The conditions noted are these: 0X19US; (2) Proteus vulgaris 0X 19US; read-out: MIC.
From the text: as §1
(2) Proteus vulgaris 0X 19US

For data set [13], the system named is Bacillus megatherium 10778. The experiment in a line: MIC against bacteria (Table I), strain (13). It is filed as cell-based. The conditions noted are these: (13) Bacillus megatherium 10778; read-out: MIC.
From the text: as §1

[14] abbreviates: (10) Salmonella enteritidis, read-out: MIC.
[15] abbreviates: (15) Micrococcus flavus ATCC 10240, read-out: MIC.
[16] abbreviates: (17) Staphylococcus Shimanishi, read-out: MIC.

`Cc1nnc(SCC2=C(C(=O)O)N3C(=O)[C@@H](NC(=O)[C@H](NC(=O)c4cnccc4O)c4ccccc4)[C@H]3SC2)s1` [Control sample, reference compound]: the “Solubility (appearance of solution)” value is “clearly” in data set [1] (at 0.5%); “became slight turbid” in data set [1] (at 1%); “became turbid” in data set [1] (at 5%); “became thickly turbid” in [1] (at 10%); “gelled” in data set [1] (at 20%).
On to `COc1ccncc1C(=O)N[C@@H](C(=O)N[C@@H]1C(=O)N2C(C(=O)O)=C(CSc3nnc(SCC(=O)O)s3)CS[C@H]12)c1ccccc1` [Example 26, 7-[D-α-(4-methoxynicotinoylamido)-α-phenylacetamido]-3-(5-carboxymethylthio-1,3,4-thiadiazole-2-yl)thiomethyl-Δ^3-cephem-4-carboxylic acid], for which the MIC in the data set on Salmonella enteritidis (setting [14]) came out at 1.56 µg/mL (≈ 2.26 µM); in the data set with Staphylococcus Onuma, 12.5 µg/mL (≈ 18.1 µM); in [2] (Micrococcus flavus), 6.25 µg/mL (≈ 9.07 µM); in data set [3] (Staphylococcus aureus, 209P) it was 1.56 µg/mL (≈ 2.26 µM); in data set [4], 3.13 µg/mL (≈ 4.54 µM); in data set [5], 25 µg/mL (≈ 36.3 µM). In addition, the MIC in data set [6] turned out to be 0.78 µg/mL (≈ 1.13 µM); in data set [7] it was 12.5 µg/mL (≈ 18.1 µM); in [8], 12.5 µg/mL (≈ 18.1 µM); against Salmonella typhi H901 W, 6.25 µg/mL (≈ 9.07 µM); in [9] it was 12.5 µg/mL (≈ 18.1 µM); in the data set on Proteus vulgaris OXK US, 0.19 µg/mL (≈ 0.276 µM). Also, the MIC worked out at 6.25 µg/mL (≈ 9.07 µM) in data set [10]; 0.78 µg/mL (≈ 1.13 µM) in data set [11]; 6.25 µg/mL (≈ 9.07 µM) in the data set on Shigella sonnei II 37148; 6.25 µg/mL (≈ 9.07 µM) in [12] (Staphylococcus); 0.39 µg/mL (≈ 0.566 µM) in the data set on Proteus vulgaris 0X 19US; 0.78 µg/mL (≈ 1.13 µM) in [13]. The solubility in data set [1] was greater than 200 mg/mL.
For the molecule `Cc1nc(SCC2=C(C(=O)O)N3C(=O)[C@@H](NC(=O)[C@H](NC(=O)c4cnccc4O)c4ccccc4)[C@H]3SC2)sc1CC(=O)O` [Example 23, 7-[D-α-(4-hydroxynicotinoylamido)-α-phenylacetamido]-3-(5-carboxymethyl-4-methylthiazol-2-yl)thiomethyl-Δ^3-cephem-4-carboxylic acid], the MIC in the data set on Salmonella enteritidis (ENTERITIDIS) came to 0.39 µg/mL (≈ 0.595 µM); in the data set on Staphylococcus Onuma it was 12.5 µg/mL (≈ 19.1 µM); in data set [2] (setting [15]) it was 12.5 µg/mL (≈ 19.1 µM); in data set [3] (Staphylococcus aureus, 209P), 3.13 µg/mL (≈ 4.77 µM); in data set [4], 1.56 µg/mL (≈ 2.38 µM); in [5] it was 12.5 µg/mL (≈ 19.1 µM). In addition, the MIC was 0.19 µg/mL (≈ 0.29 µM) in data set [6]; 12.5 µg/mL (≈ 19.1 µM) in [7]; 6.25 µg/mL (≈ 9.53 µM) in data set [8]; 1.56 µg/mL (≈ 2.38 µM) against Salmonella typhi H901 W; 6.25 µg/mL (≈ 9.53 µM) in data set [9]; less than 0.09 µg/mL in the data set on Proteus vulgaris OXK US. The MIC in data set [10] was 1.56 µg/mL (≈ 2.38 µM); in [11], 0.78 µg/mL (≈ 1.19 µM); with Shigella sonnei II 37148 it was 3.13 µg/mL (≈ 4.77 µM); in data set [12] (setting [16]) it was 12.5 µg/mL (≈ 19.1 µM); in the data set with Proteus vulgaris 0X 19US it was less than 0.09 µg/mL; in data set [13] it was 0.39 µg/mL (≈ 0.595 µM). For the same molecule, the solubility in data set [1] was greater than 200 mg/mL.
As to `Cc1nc(SCC2=C(C(=O)O)N3C(=O)[C@@H](NC(=O)[C@H](NC(=O)c4cnccc4O)c4ccccc4)[C@H]3SC2)sc1SCC(=O)O` [Example 24, 7-[D-α-(4-hydroxynicotinoylamido)-α-phenylacetamido]-3-(5-carboxymethylthio-4-methylthiazol-2-yl)thiomethyl-Δ^3-cephem-4-carboxylic acid], the MIC amounted to 0.78 µg/mL (≈ 1.13 µM) in the data set with Salmonella enteritidis (setting [14]); 6.25 µg/mL (≈ 9.09 µM) with Staphylococcus Onuma; 6.25 µg/mL (≈ 9.09 µM) in data set [2] (setting [15]); 0.78 µg/mL (≈ 1.13 µM) in [3] ((16) Staphylococcus aureus 209P, read-out: MIC); 1.56 µg/mL (≈ 2.27 µM) in [4]; 12.5 µg/mL (≈ 18.2 µM) in data set [5]. Besides, the MIC in [6] is 0.19 µg/mL (≈ 0.276 µM); in [7], 12.5 µg/mL (≈ 18.2 µM); in [8], 6.25 µg/mL (≈ 9.09 µM); against Salmonella typhi H901 W, 1.56 µg/mL (≈ 2.27 µM); in data set [9] it was 6.25 µg/mL (≈ 9.09 µM); with Proteus vulgaris OXK US, less than 0.09 µg/mL. Moreover, the MIC is 3.13 µg/mL (≈ 4.55 µM) in data set [10]; 0.39 µg/mL (≈ 0.567 µM) in data set [11]; 3.13 µg/mL (≈ 4.55 µM) in the data set with Shigella sonnei II 37148; 6.25 µg/mL (≈ 9.09 µM) in data set [12] (setting [16]); less than 0.09 µg/mL with Proteus vulgaris 0X 19US; 0.78 µg/mL (≈ 1.13 µM) in data set [13]. Further, the solubility in data set [1] was greater than 200 mg/mL.
